Results taken from patent publication US12115141B2, “Diagnosis of diabetes by detecting aggregated amylin in erythrocytes” (University of Kentucky Research Foundation, priority 2018, dated 2024).
Like-named read-outs stand apart in the source and are kept apart here. Values belong to the compound of their own block, whether it stands above or below them. Where no end group is shown, it is not given here.

Columns and labels:
[1] = tested on: RBCs / cultured vascular endothelial cells; assay: RBC adhesion assay on cultured vascular endothelial cells; type: cell-based, rat
Experimental: RBCs collected from each HIP rat group (normal, pre-diabetes, diabetes, ±high-fat diet) are infused into AKO rats (300 μL RBCs, daily, 7 days, q.d., via the tail vein). Because diabetes develops later (by 6 mo) in female vs. male HIP rats, AKO rats are matched for age and sex to HIP rats providing the RBCs for infusion. At the end of infusion period, rats are sacrificed, perfused with saline through a catheter implanted into the right external jugular vein to wash out the blood from blood vessels, followed by heart collection and paraffin embedding. Confocal microscopy is used to identify the attachment of amylin-loaded RBCs to vascular endothelium (as in FIG. 5A). Before analysis, heart sections are incubated with 1% Sudan black to block autofluorescence. Control sections with either omitted primary or secondary antibodies are used to establish specific staining. […] Adherence is calculated as percentage of optical density of adhered Hb (as in FIG. 5C).
In some embodiments, adult rat microvascular endothelial cells (RA-6024, Cell Biologics, IL) were cultured on 96-wells cell culture plate coated with cell attachment factor solution (123-100, Sigma, MO). […] The amount of hemoglobin in each well was measured from the optical density (OD) as described above. Adherence was calculated as the percentage of OD of adhered hemoglobin/(OD of total hemoglobin×dilution factor).

WT rat RBCs = assay: RBC shape by flow cytometry after incubation with human amylin; type: cell-based
Experimental: In all rat groups (±high-fat diet), the RBC shape distributions are analyzed by FACScan flow cytometry (Becton Dickinson LSRII) as a function of characteristic RBC amylin levels, as in FIG. 4D. The Pearson coefficient of dissymmetry (PCD) shown in FIG. 4D reflects the sphericity of RBCs (PCD=0 indicates RBC spherical shape).
In some embodiments, RBCs (1×10^7 cells) were aliquoted to assay tubes, washed twice with 2 mL incubation buffer (0.5% BSA in PBS), and resuspended in 100 μL incubation buffer. RBCs were incubated with an anti-amylin antibody (1:200, T-4157, Bachem-Peninsula Laboratories, CA) for 1 hour on ice, washed twice with PBS by centrifugation at 1000×g for 1 minute and then incubated with goat anti-rabbit Alexa Fluor® 488 (A11029, Invitrogen, MA) for 30 min on ice. RBCs were then washed twice before re-suspension in 200 μl PBS, and analyzed by flow cytometer (Becton Dickinson LSRII) within 90 min. To assess the cell shape, RBCs were first gated on a forward scatter (FSC)/side scatter (SSC) plot. The R1 events arevisualized using a FSC-A/FSC-H dot plot. For detecting amylin deposited on RBCs, the cells were first gated on a forward scatter (FSC)/side scatter (SSC) plot. RBCs were further gated to determine the amylin signal (Alexa 488), using negative control (no antibody) and positive control to set the upper and lower boundaries.

diabetic UCD rats = assay: Intravenous aggregated human amylin in diabetic UCD rats; type: in vivo, rat
Experimental: To examine further a possible ‘amylin stress” on oxygen-sensing pathways, aggregated human amylin (hA) (0.08 μg/g body weight) was intravenously administered to diabetic UCD rats, daily, for one week. […] This acute “amylin stress” provoked an increase in plasma EPO level (FIG. 23E; the “after hA inj” rat group) and no difference in renal HIF-2α and HIF-1α levels in whole kidney tissue homogenate (FIG. 23F).

AKO mice = conditions: cited from earlier work; for amylin deposits in the myocardium: i.v. q.d., 7 days
HIP rats = conditions: cited from earlier work
amylin = molecular target: T1, amylin (Homo sapiens, UniProt P10997); assay: Amylin aggregation with 14,15-EET (FIG. 15A); type: biochemical
T1 construct: is a 37-amino acid peptide synthesized and co-secreted with insulin
T1 sequence (P10997 34-70 limits assumed): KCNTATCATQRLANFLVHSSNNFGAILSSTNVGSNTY

cardiac myocytes = assay: Amylin incorporation in cardiac myocytes ex vivo (FIG. 15B); type: cell-based
Experimental: Cardiac myocytes were isolated from rats in all rat groups. Isolated myocytes are used for testing myocyte accumulation of amylin (by ELISA and Western blot, as shown before^8,10), sarcolemmal structural integrity (dye leakage assay, electron microscopy, LC-MS/MS and fluorescent markers) and myocyte Ca^2+ cycling (see below). Each experiment is performed on hearts/myocytes from a number of rats/group. Calculation of the minimum sample size with a two-tail t-test considering α=0.05 and 1−β=0.8; performed with GPower 3.1.9.2.

[2] = kidney tissue homogenates, FIG. 23G

- Arginase 1 protein levels (diabetic UCD rats; [2]): elevated
- arginase 2 protein expression (diabetic UCD rats; [2]): no significant change
Compound: human amylin: 37-amino acid amyloid-forming peptide (islet amyloid polypeptide; IAPP), used recombinant/synthetic, aggregated (KCNTATCATQRLANFLVHSSNNFGAILSSTNVGSNTY)
- RBC adherence to cultured endothelial cells ([1]; WT rat RBCs incubated 50 μmol/L, 2 h, FIG. 5C): increased
- structural change of RBCs (rounded shape) (WT rat RBCs; 50 μmol/L, 2 h): replicated
- morphological change of RBCs (PCD) (WT rat RBCs; 4 hours, FIG. 27): replicated
- amylin deposition on RBCs (diabetic UCD rats; 0.08 μg/g body weight i.v. daily, one week, FIG. 23D): amylin deposition on RBCs
- plasma EPO level (diabetic UCD rats; 0.08 μg/g i.v. daily, one week, vs baseline, FIG. 23E): increase
- renal HIF-2α and HIF-1α levels (diabetic UCD rats; whole kidney tissue homogenate, FIG. 23F): no difference
- Sarcolemmal Ca2+ leak and Ca2+ transients (AKO mice; females): no significant changes
- amylin deposits in the myocardium (AKO mice): showed amylin deposits in the myocardium
- Sarcolemmal Ca2+ leak and Ca2+ transients (AKO mice; myocytes from male AKO mice): increased

Compound: CC(=O)N1CCC(NC(=O)NC23CC4CC(CC(C4)C2)C3)CC1 [APAU]
- amylin incorporation into RBCs and cardiac myocytes (HIP rats; pre-diabetic HIP rats): lower
- heart function (HIP rats; pre-diabetic HIP rats, prior study): improved
- levels of aggregated amylin in blood and cardiac myocytes (HIP rats; pre-diabetic male HIP rats, 10 weeks, prior study): lower levels

Compound: rodent amylin: non-amyloidogenic (i.e., monomeric) rodent amylin (KCNTATCATQRLANFLVRSSNNLGPVLPPTNVGSNTY; ends and bridges not checked; cysteine pairing not given here; UniProt P12969 38-74, looked up)
- amylin deposits in the myocardium (AKO mice): not
- Sarcolemmal Ca2+ leak and Ca2+ transients (AKO mice; rat amylin-infused mice): no significant changes

- amylin aggregation (amylin): reduced
Compound: CCCCCC1OC1C/C=C\C/C=C\C/C=C\CCCC(=O)O (racemic) [14,15-EET, (±)14(15)-EET]
- adhesion of HIP rat RBCs to cultured endothelial cells ([1]; ex vivo incubation, FIG. 22D): reduced
- amylin incorporation in cardiac myocytes (cardiac myocytes): reduced
